“And” between values parts separate entries of the source, which are not always exact repeats. Equal entries are not always repeated. “Also recorded” adds a separate entry of the source. Structures can show the parent of a compound that is named as a salt. Where two headings read alike, the source gives them in different places.
What was measured:
[1] = tested on: transporters; parameters: method as in earlier work; conditions: known transporter targets, per category of inhibited transporters, cited from earlier work
[2] = molecular target: T1, hSGLT2 (Homo sapiens, UniProt P31639); test: SGLT2 inhibition assay for validation of screening hits and similar compounds (1‐NBD‐glucose uptake, CHO‐hSGLT2 cells); type: cell-based; parameters: activity: dose or concentration left out as unconfirmed; conditions: for IC50: 1‐NBD‐glucose uptake, CHO‐hSGLT2, mean of n biological replicates, or individual measurements where n=2, read-out: SGLT2‐IC50 Mean; for remaining activity at 5 µM / remaining activity at 50 µM: 0.5 h, read-out: NORMALIZED SGLT2 ACTIVITY (%); for inhibition at 50 µM: mean inhibition with 50 μmol/L inhibitor; for activity: compound, normalized 1-NBD-glucose uptake, CHO-hSGLT2 cells; for SGLT2/SGLT1 ACTIVITY RATIO 5 uM Mean: ratio of normalized SGLT2 to SGLT1 activity at 5 uM
T1 sequence (P31639 1-672): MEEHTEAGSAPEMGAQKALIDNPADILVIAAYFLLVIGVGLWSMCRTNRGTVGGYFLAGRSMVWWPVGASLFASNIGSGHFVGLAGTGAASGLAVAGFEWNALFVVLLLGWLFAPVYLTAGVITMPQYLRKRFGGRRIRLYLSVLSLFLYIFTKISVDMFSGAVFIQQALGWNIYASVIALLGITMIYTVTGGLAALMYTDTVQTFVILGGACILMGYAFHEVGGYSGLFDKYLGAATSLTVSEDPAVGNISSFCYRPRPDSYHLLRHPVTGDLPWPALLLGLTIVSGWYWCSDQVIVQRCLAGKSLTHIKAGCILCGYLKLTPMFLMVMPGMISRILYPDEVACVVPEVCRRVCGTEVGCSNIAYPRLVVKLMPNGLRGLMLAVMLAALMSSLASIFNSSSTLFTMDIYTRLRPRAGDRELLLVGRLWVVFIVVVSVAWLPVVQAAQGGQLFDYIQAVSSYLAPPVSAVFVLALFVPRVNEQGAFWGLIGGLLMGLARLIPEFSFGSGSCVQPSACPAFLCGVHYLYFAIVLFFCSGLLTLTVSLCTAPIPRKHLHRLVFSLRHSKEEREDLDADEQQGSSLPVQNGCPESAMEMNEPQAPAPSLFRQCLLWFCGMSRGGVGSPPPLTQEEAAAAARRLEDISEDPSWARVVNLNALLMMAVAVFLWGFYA

[3] = molecular target: T2, SGLT1 (Homo sapiens, UniProt P13866); test: SGLT1 inhibition assay for validation of screening hits and similar compounds (1‐NBD‐glucose uptake, CHO‐hSGLT1 cells); type: cell-based; parameters: activity: dose or concentration left out as unconfirmed; conditions: for IC50: 1‐NBD‐glucose uptake, CHO‐hSGLT1, mean of n biological replicates, or individual measurements where n=2, read-out: SGLT1‐IC50 Mean; for remaining activity at 5 µM / remaining activity at 50 µM: 0.5 h, read-out: NORMALIZED SGLT1 ACTIVITY (%); for inhibition at 50 µM: mean inhibition with 50 μmol/L inhibitor, read-out: SGLT1 inhibition; for SGLT1/2 inhibition stated in words: SGLT1 and/or SGLT2, discussion statements; for activity: compound, normalized 1-NBD-glucose uptake, CHO-hSGLT1 cells
T2 sequence (P13866 1-664): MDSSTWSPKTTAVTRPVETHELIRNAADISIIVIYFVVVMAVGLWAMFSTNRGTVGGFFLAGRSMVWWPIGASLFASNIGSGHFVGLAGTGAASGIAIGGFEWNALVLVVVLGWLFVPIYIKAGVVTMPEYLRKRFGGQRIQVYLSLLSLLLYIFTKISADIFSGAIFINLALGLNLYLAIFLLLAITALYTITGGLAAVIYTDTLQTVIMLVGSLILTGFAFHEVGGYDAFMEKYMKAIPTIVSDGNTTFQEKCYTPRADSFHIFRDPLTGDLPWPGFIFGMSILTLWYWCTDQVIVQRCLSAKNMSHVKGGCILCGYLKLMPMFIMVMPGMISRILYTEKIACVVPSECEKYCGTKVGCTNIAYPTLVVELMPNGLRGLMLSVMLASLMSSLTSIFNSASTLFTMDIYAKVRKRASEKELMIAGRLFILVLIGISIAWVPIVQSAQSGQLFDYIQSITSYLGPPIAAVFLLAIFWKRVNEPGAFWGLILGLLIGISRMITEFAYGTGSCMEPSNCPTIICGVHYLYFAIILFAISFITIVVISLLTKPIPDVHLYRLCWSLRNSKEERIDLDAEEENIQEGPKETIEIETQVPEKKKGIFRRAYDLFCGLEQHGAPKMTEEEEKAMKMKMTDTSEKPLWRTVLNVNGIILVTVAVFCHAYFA

[4] = molecular target: T1, hSGLT2; test: cell-based; parameters: host or cells: CHO-K1; conditions: CHO, read-out: % of control remaining
[5] = molecular target: T2, SGLT1; test: cell-based; parameters: host or cells: CHO-K1; conditions: CHO, read-out: % of control remaining
[6] = tested on: CHO‐hSGLT1/2 cells; test: Cytotoxicity assay (ToxiLight, adenylate kinase leakage into CHO‐SGLT1/2 inhibition assay media); parameters: CYTOTOXICITY / CY[…], mean / CYTOTOXICITY (% of vehicle control) Mean / CYTOTOXICITY, mean / CY[…] (% of vehicle control) Mean: dose or concentration left out as unconfirmed; conditions: mean;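 also: bioluminescent read-out of adenylate kinase released from lysed cells into the medium, given relative to DMSO vehicle control defined as 0%, higher meaning more cytolysis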

COc1ccc(CCN(C)CCCC(C#N)(c2ccc(OC)c(OC)c2)C(C)C)cc1OC (centres unmarked) [verapamil]
INHIBITED TRANSPORTERS ([1]; sodium (co-)transporters): SLC6A4, SLC22A1, SLC22A4, SLC22A5

CN1[C@@H]2CC[C@H]1C[C@@H](OC(c1ccccc1)c1ccccc1)C2 [benztropine]
INHIBITED TRANSPORTERS [1]: SLC6A2, SLC6A3, SCN10A

C=C[C@H]1C[N@@]2CC[C@H]1C[C@@H]2[C@@H](O)c1ccnc2ccc(OC)cc12 [Quinidine, quinidine, reference compound]
INHIBITED TRANSPORTERS [1]: SLC22A1, SLC22A2, SLC22A5, SLCO1A2, SLC22A4; also recorded: SLC22A8, SLCO1B1
IC50 [2]: 56 µM
remaining activity at 5 µM ([2]; mean, concentration not given): 92%
remaining activity at 50 µM ([2]; mean, concentration not given): 51%
inhibition at 50 µM [2]: 49%
IC50 [3]: 62 µM
remaining activity at 5 µM ([3]; mean, concentration not given): 93%
remaining activity at 50 µM ([3]; mean, concentration not given): 50%
inhibition at 50 µM [3]: 50%

C=C[C@H]1C[N@@]2CC[C@H]1C[C@H]2[C@H](O)c1ccnc2ccc(OC)cc12 [quinine, reference compound]
INHIBITED TRANSPORTERS [1]: SLC22A1, SLC22A2, SLC22A5, SLCO1A2, SLC22A4
remaining activity at 5 µM ([2]; mean, concentration not given): 92%
remaining activity at 50 µM ([2]; mean, concentration not given): 66%
inhibition at 50 µM [2]: 34%
remaining activity at 5 µM ([3]; mean, concentration not given): 101%
remaining activity at 50 µM ([3]; mean, concentration not given): 76%
inhibition at 50 µM [3]: 24%

CC(C)COCC(CN(Cc1ccccc1)c1ccccc1)N1CCCC1 (centres unmarked) [Bepridil, bepridil, reference compound]
INHIBITED TRANSPORTERS [1]: CACNA1A, CACNA1H, CACNA2D2, KCNH2, KCNQ1, KCNH2
IC50 [2]: 14 µM
inhibition at 50 µM [2]: 70%
IC50 [3]: 10 µM
SGLT1/2 inhibition stated in words [3]: showed SGLT1/2 inhibition
inhibition at 50 µM [3]: 74%

C[C@@H]1O[C@@H](O[C@H]2[C@H](O[C@H]3CC[C@@]4(C)[C@@H](CC[C@]5(C)[C@@H]4CC=C4[C@@H]6CC(C)(C)CC[C@]6(C(=O)O[C@@H]6O[C@H](CO[C@@H]7O[C@H](CO)[C@@H](O[C@@H]8O[C@@H](C)[C@H](O)[C@@H](O)[C@H]8O)[C@H](O)[C@H]7O)[C@@H](O)[C@H](O)[C@H]6O)CC[C@]45C)[C@]3(C)CO)OC[C@H](O)[C@@H]2O)[C@H](O)[C@H](O)[C@H]1O [Hederacoside C]
remaining activity at 5 µM [4]: 113%
remaining activity at 50 µM [4]: 115%
remaining activity at 5 µM [5]: 97.9%
remaining activity at 50 µM [5]: 102%
CYTOTOXICITY [6]: -28

COc1ccc(-c2coc3cc(O[C@@H]4O[C@H](CO)[C@@H](O)[C@H](O)[C@H]4O)c(OC)cc3c2=O)cc1 [wistin]
activity ([2]; mean): 98%
SGLT2/SGLT1 ACTIVITY RATIO 5 uM Mean [2]: 1.0
activity ([3]; mean): 99%
CYTOTOXICITY (% of vehicle control) Mean [6]: -51 % of vehicle control
Cytotoxicity (percentage of bioluminescence of DMSO vehicle control, set at 0%) ([6]; CHO‐SGLT1 and CHO‐SGLT2 data combined, ≥20% considered toxic): −51%

CCCCN1CCCCC1C(=O)Nc1c(C)cccc1C (centres unmarked) [Bupivacaine, bupivacaine, reference compound]
INHIBITED TRANSPORTERS [1]: SCN10A
IC50 [2]: 43 µM
IC50 [3]: 23 µM
SGLT1/2 inhibition stated in words [3]: novel SGLT1/2 inhibitors
inhibition at 50 µM [3]: 64%

CC1(C)Oc2ccc3ccc(=O)oc3c2[C@@H](O)[C@H]1O[C@@H]1O[C@H](CO)[C@@H](O)[C@H](O)[C@H]1O [Praeroside II]
activity ([2]; mean): 98%
SGLT2/SGLT1 ACTIVITY RATIO 5 uM Mean [2]: 1.0
activity ([3]; mean): 98%
CYTOTOXICITY (% of vehicle control) Mean [6]: 10 % of vehicle control

C[C@@H]1O[C@@H](O[C@H]2[C@H](O[C@H]3CC[C@@]4(C)[C@@H](CC[C@]5(C)[C@@H]4CC=C4[C@@H]6CC(C)(C)CC[C@]6(C(=O)O[C@@H]6O[C@H](CO[C@@H]7O[C@H](CO)[C@@H](O)[C@H](O)[C@H]7O)[C@@H](O)[C@H](O)[C@H]6O)CC[C@]45C)[C@]3(C)CO)OC[C@H](O)[C@@H]2O)[C@H](O)[C@H](O)[C@H]1O [Dipsacoside B]
SGLT2/SGLT1 ACTIVITY RATIO [2]: 1.2 and 1.3
remaining activity at 5 µM [2]: 121%
remaining activity at 50 µM [2]: 121%
remaining activity at 5 µM [3]: 96%
remaining activity at 50 µM [3]: 104%
CY[…] 50 mM ([6]; at 50 mM (so in the source)): -12

CCCN1CCCC[C@H]1C(=O)Nc1c(C)cccc1C [ropivacaine, reference compound]
INHIBITED TRANSPORTERS [1]: SCN10A
SGLT1/2 inhibition stated in words [3]: novel SGLT1/2 inhibitors
inhibition at 50 µM [3]: 30%

COc1cc(O[C@@H]2O[C@H](CO)[C@@H](O)[C@H](O)[C@H]2O)c2c(c1)O[C@H](c1ccc(O)cc1)CC2=O [Sakuranin]
activity ([2]; mean): 100%
SGLT2/SGLT1 ACTIVITY RATIO 5 uM Mean [2]: 1.0
activity ([3]; mean): 98%
CYTOTOXICITY (% of vehicle control) Mean [6]: -1.5 % of vehicle control

CC(CN(C)C)CN1c2ccccc2CCc2ccccc21 (centres unmarked) [trimipramine, reference compound]
INHIBITED TRANSPORTERS [1]: SLC6A2, SLC6A3, SLC6A4
SGLT1/2 inhibition stated in words [3]: novel SGLT1/2 inhibitors
inhibition at 50 µM [3]: 43%

Oc1cc(O)cc(/C=C/c2ccc(O)cc2O)c1 [Oxyresveratrol]
remaining activity at 5 µM ([2]; mean, concentration not given): 109%
remaining activity at 50 µM ([2]; mean, concentration not given): 115%
remaining activity at 5 µM ([3]; mean, concentration not given): 105%
remaining activity at 50 µM ([3]; mean, concentration not given): 123%
CYTOTOXICITY [6]: -89

C/C=C(\C)C(=O)O[C@H]1c2c(ccc3ccc(=O)oc23)OC(C)(C)[C@H]1OC(=O)/C(C)=C/C [praeruptorin D]
activity ([2]; mean): 110%
SGLT2/SGLT1 ACTIVITY RATIO 5 uM Mean [2]: 1.4
SGLT2/SGLT1‐50μmol/L (ratio of SGLT2 to SGLT1 activities with 50 μmol/L inhibitor) [3]: 2.6
activity ([3]; mean): 79%
CYTOTOXICITY (% of vehicle control) Mean [6]: -9 % of vehicle control

Clc1ccc(C(OCCN2CCCCC2)c2ccccc2)cc1 (centres unmarked) [Cloperastine HCl]
activity ([2]; mean): 65%
SGLT2/SGLT1 ACTIVITY RATIO 5 uM Mean [2]: 1.1
activity ([3]; mean): 61%
CYTOTOXICITY (% of vehicle control) Mean [6]: -5 % of vehicle control

CC=C(C)C(=O)O[C@H]1c2c(ccc3ccc(=O)oc23)OC(C)(C)[C@H]1OC(C)=O [(+)-Pteryxin]
activity ([2]; mean): 81%
SGLT2/SGLT1 ACTIVITY RATIO 5 uM Mean [2]: 1.1
activity ([3]; mean): 75%
CYTOTOXICITY (% of vehicle control) Mean [6]: 2 % of vehicle control
